# Where “and” joins values, the source holds several entries; their conditions need not be identical. Equal entries are not always repeated.
# Key:
# [1] = test system: HepG-2; test: MTT anti-proliferative assay, HepG-2; assay type: cell-based, human; settings: Homo sapiens, HepG2
# [2] = test system: caspase-9; test: Caspase-9 expression level in HepG-2 cells; assay type: cell-based, human; settings: for Caspase-9 ± SE: HepG-2, at IC50 concentrations, control 11.01
# Protocol: (§1) All synthesized compounds were tested at their cytotoxic concentrations in HepG-2 cells for analysis of gene expression levels of apoptotic markers caspase-3, caspase-9, TNF-α, and IL-6 proteins, and only two active compounds were tested for BAX and Bcl-2 proteins.
# (§2) through Flow cytometric analysis.
# (§3) Pellets were collected again and incubated with
# (§4) Total RNA from vehicle-treated
# (§5) (Thermo Scientific, USA).
# (§6) All experiments were performed in […]
# [3] = test system: Bcl-2; test: Bcl-2 gene expression in HepG-2 cells; assay type: cell-based, human
# Protocol: as §1, §2, §3, §4, §5, §6
# [4] = test system: BAX; test: BAX gene expression in HepG-2 cells; assay type: cell-based, human
# Protocol: as §1, §2, §3, §4, §5, §6
# [5] = test system: K-562; test: MTT anti-proliferative assay, K-562; assay type: cell-based, human; settings: Homo sapiens, K562
# [6] = test system: BAX/Bcl-2; test: BAX/Bcl-2 ratio in HepG-2 cells; assay type: cell-based, human; settings: control 0.1260
# Protocol: as §1, §2, §3, §4, §5, §6
# [7] = test system: IL-6R; test: IL-6R level in HepG-2 cells; assay type: cell-based, human
# Protocol: as §1, §2, §3, §4, §5, §6
# [8] = test system: MCF-7; test: MTT anti-proliferative assay, MCF-7; assay type: cell-based, human; settings: Homo sapiens, MCF7
# [9] = molecular target: VEGFR-2 (Homo sapiens, UniProt P35968); test: In vitro VEGFR-2 inhibitory assay (ELISA kit); settings: VEGFR-2 kinase
# VEGFR-2, sequence (P35968 20-1356): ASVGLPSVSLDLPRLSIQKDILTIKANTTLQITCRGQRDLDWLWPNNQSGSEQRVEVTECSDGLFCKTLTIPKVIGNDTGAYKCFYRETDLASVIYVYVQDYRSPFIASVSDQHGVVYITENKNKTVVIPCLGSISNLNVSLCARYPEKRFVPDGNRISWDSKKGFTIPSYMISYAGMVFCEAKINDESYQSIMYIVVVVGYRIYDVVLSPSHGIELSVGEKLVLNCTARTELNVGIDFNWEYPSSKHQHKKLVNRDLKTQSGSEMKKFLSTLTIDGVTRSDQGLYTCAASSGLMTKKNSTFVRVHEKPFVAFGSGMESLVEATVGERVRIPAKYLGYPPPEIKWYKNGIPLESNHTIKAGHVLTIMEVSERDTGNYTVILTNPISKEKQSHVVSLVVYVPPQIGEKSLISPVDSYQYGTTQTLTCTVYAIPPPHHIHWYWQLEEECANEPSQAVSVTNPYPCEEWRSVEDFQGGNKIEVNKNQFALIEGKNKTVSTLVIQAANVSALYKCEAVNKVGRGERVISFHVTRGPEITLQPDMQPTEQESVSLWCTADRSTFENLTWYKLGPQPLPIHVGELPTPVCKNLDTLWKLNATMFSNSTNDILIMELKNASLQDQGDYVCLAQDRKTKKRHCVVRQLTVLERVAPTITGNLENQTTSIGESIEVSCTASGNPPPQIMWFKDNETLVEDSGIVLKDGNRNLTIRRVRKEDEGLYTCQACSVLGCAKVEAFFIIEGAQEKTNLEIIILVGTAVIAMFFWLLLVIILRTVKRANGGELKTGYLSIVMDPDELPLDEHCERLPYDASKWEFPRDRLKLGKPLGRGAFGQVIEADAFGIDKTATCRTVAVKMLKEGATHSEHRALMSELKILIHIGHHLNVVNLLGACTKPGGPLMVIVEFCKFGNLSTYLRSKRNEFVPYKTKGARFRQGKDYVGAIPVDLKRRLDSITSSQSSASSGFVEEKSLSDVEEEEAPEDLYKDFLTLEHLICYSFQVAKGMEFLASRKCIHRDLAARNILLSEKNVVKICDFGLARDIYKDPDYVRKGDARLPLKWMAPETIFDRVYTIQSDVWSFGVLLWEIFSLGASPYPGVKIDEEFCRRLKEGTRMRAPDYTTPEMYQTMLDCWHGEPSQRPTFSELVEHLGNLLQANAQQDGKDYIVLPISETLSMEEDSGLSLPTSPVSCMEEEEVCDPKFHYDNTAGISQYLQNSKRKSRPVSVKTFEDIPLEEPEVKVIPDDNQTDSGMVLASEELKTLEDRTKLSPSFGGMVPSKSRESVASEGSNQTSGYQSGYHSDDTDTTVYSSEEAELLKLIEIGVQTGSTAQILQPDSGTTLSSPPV
# [10] = test system: TNF-alpha; test: TNF-alpha level in HepG-2 cells; assay type: cell-based, human; settings: control 43.48
# Protocol: as §1, §2, §3, §4, §5, §6
# [11] = molecular target: EGFR (Homo sapiens, UniProt P00533); test: EGFR kinase inhibition assay (ELISA kit)
# EGFR, sequence (P00533 25-1210): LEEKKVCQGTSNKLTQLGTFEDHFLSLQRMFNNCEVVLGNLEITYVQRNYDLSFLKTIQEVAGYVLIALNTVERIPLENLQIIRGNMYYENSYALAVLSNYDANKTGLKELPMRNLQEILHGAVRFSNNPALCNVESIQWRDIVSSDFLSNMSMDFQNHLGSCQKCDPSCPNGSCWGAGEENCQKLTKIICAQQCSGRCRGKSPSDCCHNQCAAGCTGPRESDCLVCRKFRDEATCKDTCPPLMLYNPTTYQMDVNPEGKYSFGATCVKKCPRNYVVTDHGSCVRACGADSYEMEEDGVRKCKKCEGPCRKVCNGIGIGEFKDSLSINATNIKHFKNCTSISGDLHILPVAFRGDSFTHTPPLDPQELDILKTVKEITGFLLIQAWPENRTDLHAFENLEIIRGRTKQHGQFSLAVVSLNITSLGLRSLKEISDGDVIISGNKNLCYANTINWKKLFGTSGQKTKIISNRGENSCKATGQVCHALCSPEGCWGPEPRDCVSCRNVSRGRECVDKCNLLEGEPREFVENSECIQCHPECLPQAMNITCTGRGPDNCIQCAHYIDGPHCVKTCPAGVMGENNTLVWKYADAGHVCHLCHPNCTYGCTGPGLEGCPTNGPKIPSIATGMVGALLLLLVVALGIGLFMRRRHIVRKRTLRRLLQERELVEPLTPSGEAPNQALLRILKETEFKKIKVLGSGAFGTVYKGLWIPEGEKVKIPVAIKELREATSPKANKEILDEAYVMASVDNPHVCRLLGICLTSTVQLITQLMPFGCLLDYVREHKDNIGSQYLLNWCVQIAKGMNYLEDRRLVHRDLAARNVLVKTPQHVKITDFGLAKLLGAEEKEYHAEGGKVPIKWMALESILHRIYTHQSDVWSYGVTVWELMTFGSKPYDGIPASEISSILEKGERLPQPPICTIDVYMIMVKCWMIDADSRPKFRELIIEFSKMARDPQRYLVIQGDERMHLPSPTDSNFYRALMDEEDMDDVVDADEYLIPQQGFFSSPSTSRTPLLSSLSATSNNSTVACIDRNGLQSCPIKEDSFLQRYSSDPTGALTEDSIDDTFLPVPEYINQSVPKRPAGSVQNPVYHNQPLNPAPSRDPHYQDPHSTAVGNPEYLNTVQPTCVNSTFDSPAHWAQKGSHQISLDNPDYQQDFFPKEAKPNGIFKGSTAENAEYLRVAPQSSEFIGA
# [12] = test system: caspase-3; test: Caspase-3 expression level in HepG-2 cells; assay type: cell-based, human; settings: for Caspase-3 ± SE: HepG-2, at IC50 concentrations, control 0.460
# Protocol: as §1, §2, §3, §4, §5, §6
# [13] = test system: HepG-2 cells; test: Cell cycle analysis (PI staining, flow cytometry); assay type: cell-based, human
# Protocol: In order to cause cytotoxicity, anticancer medicines must stop cell division at specific checkpoints, which are discrete stages of the cell cycle.
# Propidium iodide (PI) staining and flow cytometry analysis[74,75] were used to analyze the cell cycle for derivatives 8a and 9a, as illustrated in the SI.
# as §2, §3, §4, §5, §6
smiles,measurement,setting,value
"O=C(Cn1cnc2cc(Cl)ccc2c1=O)Nc1ccccc1 [8a, 2-(7-Chloro-4-oxoquinazolin-3(4H)-yl)-N-phenylacetamide]",viability at 0.195 µg/mL,"[1]; HepG-2, 0.195 ug/ml",45.9%
same,cytotoxicity at 0.195 µg/mL,"[1]; HepG-2, 0.195 ug/ml, read-out: Toxicity %",54.1%
same,viability at 0.391 µg/mL,"[1]; HepG-2, 0.391 ug/ml",26.4%
same,cytotoxicity at 0.391 µg/mL,"[1]; HepG-2, 0.391 ug/ml, read-out: Toxicity %",73.6%
same,viability at 0.781 µg/mL,"[1]; HepG-2, 0.781 ug/ml",16.7%
same,cytotoxicity at 0.781 µg/mL,"[1]; HepG-2, 0.781 ug/ml, read-out: Toxicity %",83.3%
same,viability at 1.563 µg/mL,"[1]; HepG-2, 1.563 ug/ml",11.8%
same,cytotoxicity at 1.563 µg/mL,"[1]; HepG-2, 1.563 ug/ml, read-out: Toxicity %",88.2%
same,viability at 3.125 µg/mL,"[1]; HepG-2, 3.125 ug/ml",8.68%
same,cytotoxicity at 3.125 µg/mL,"[1]; HepG-2, 3.125 ug/ml, read-out: Toxicity %",91.3%
same,viability at 6.25 µg/mL,"[1]; HepG-2, 6.25 ug/ml",7.88%
same,cytotoxicity at 6.25 µg/mL,"[1]; HepG-2, 6.25 ug/ml, read-out: Toxicity %",92.1%
same,viability at 12.5 µg/mL,"[1]; HepG-2, 12.5 ug/ml",6.74%
same,cytotoxicity at 12.5 µg/mL,"[1]; HepG-2, 12.5 ug/ml, read-out: Toxicity %",93.3%
same,viability at 25 µg/mL,"[1]; HepG-2, 25 ug/ml",5.9%
same,cytotoxicity at 25 µg/mL,"[1]; HepG-2, 25 ug/ml, read-out: Toxicity %",94.1%
same,IC50,"[1]; MTT, HepG-2, read-out: Cytotoxicity against cancer cells IC50 HepG-2",187.1 ± 1.8 nM
same,Caspase-9 ± SE,[2],74.01 ± 3.92 ng/L
same,Caspase-9 ± SE,[2]; listed as R2,74.01 ng/L
same,"caspase-9 expression level, fold increase","[2]; HepG-2, vs control cells",6.72 fold
same,fold reduction in Bcl-2 expression level,"[3]; HepG-2, vs control",3.75 fold
same,Gene expression (fold change) Bcl-2,"[3]; HepG-2, control 3.4983",0.93 fold change and 0.9352 ± 0.09 fold change
same,fold increase in BAX expression level,"[4]; HepG-2, vs control",3.8 fold
same,BAX expression level,"[4]; HepG-2, control 0.44",1.67 fold change
same,Gene expression (fold change) BAX,"[4]; HepG-2, control 0.4448",1.6792 ± 0.74 fold change
same,viability at 0.195 µmol,"[5]; K-562, 0.195 umol",46.6%
same,cytotoxicity at 0.195 µmol,"[5]; K-562, 0.195 umol, read-out: Toxicity %",53.4%
same,viability at 0.391 µmol,"[5]; K-562, 0.391 umol",29.3%
same,cytotoxicity at 0.391 µmol,"[5]; K-562, 0.391 umol, read-out: Toxicity %",70.7%
same,viability at 0.781 µmol,"[5]; K-562, 0.781 umol",22%
same,cytotoxicity at 0.781 µmol,"[5]; K-562, 0.781 umol, read-out: Toxicity %",78%
same,viability at 1.563 µmol,"[5]; K-562, 1.563 umol",12.7%
same,cytotoxicity at 1.563 µmol,"[5]; K-562, 1.563 umol, read-out: Toxicity %",87.3%
same,viability at 3.125 µmol,"[5]; K-562, 3.125 umol",8.29%
same,cytotoxicity at 3.125 µmol,"[5]; K-562, 3.125 umol, read-out: Toxicity %",91.7%
same,viability at 6.25 µmol,"[5]; K-562, 6.25 umol",7.18%
same,cytotoxicity at 6.25 µmol,"[5]; K-562, 6.25 umol, read-out: Toxicity %",92.8%
same,viability at 12.5 µmol,"[5]; K-562, 12.5 umol",6.03%
same,cytotoxicity at 12.5 µmol,"[5]; K-562, 12.5 umol, read-out: Toxicity %",94%
same,viability at 25 µmol,"[5]; K-562, 25 umol",5.54%
same,cytotoxicity at 25 µmol,"[5]; K-562, 25 umol, read-out: Toxicity %",94.5%
same,IC50,"[5]; MTT, K-562, read-out: Cytotoxicity against cancer cells IC50 K-562",188.4 ± 1.7 nM
same,Gene expression (fold change) BAX/Bcl-2 ratio,[6],1.77 and 1.7777 ± 0.11
same,IL-6R ± SE,"[7]; HepG-2, at IC50 concentrations, control 44.10",19.54 ± 1.62 ng/L
same,IL-6R protein level,"[7]; HepG-2, control 44.10%",19.54 ng/L
same,IL-6 ±SE,"[7]; raw data, HepG2, control 44.10",26.0 ng/L
same,viability at 0.195 µmol,"[8]; MCF-7, 0.195 umol",93.5%
same,cytotoxicity at 0.195 µmol,"[8]; MCF-7, 0.195 umol, read-out: Toxicity %",6.51%
same,viability at 0.391 µmol,"[8]; MCF-7, 0.391 umol",67%
same,cytotoxicity at 0.391 µmol,"[8]; MCF-7, 0.391 umol, read-out: Toxicity %",33%
same,viability at 0.781 µmol,"[8]; MCF-7, 0.781 umol",45.2%
same,cytotoxicity at 0.781 µmol,"[8]; MCF-7, 0.781 umol, read-out: Toxicity %",54.8%
same,viability at 1.563 µmol,"[8]; MCF-7, 1.563 umol",28.5%
same,cytotoxicity at 1.563 µmol,"[8]; MCF-7, 1.563 umol, read-out: Toxicity %",71.5%
same,viability at 3.125 µmol,"[8]; MCF-7, 3.125 umol",17.8%
same,cytotoxicity at 3.125 µmol,"[8]; MCF-7, 3.125 umol, read-out: Toxicity %",82.2%
same,viability at 6.25 µmol,"[8]; MCF-7, 6.25 umol",11.4%
same,cytotoxicity at 6.25 µmol,"[8]; MCF-7, 6.25 umol, read-out: Toxicity %",88.6%
same,viability at 12.5 µmol,"[8]; MCF-7, 12.5 umol",8.31%
same,cytotoxicity at 12.5 µmol,"[8]; MCF-7, 12.5 umol, read-out: Toxicity %",91.7%
same,viability at 25 µmol,"[8]; MCF-7, 25 umol",7.26%
same,cytotoxicity at 25 µmol,"[8]; MCF-7, 25 umol, read-out: Toxicity %",92.7%
same,IC50,"[8]; MTT, MCF-7, read-out: Cytotoxicity against cancer cells IC50 MCF-7",695.5 ± 5.1 nM
same,Activity %,[9]; HepG2,25.136%
same,Inhibition %,[9]; HepG2,74.864%
same,Activity %,[9]; K-562,37.495%
same,Inhibition %,[9]; K-562,62.505%
same,Activity %,[9]; MCF7,32.377%
same,Inhibition %,[9]; MCF7,67.623%
same,TNF-alpha ±SE,"[10]; HepG-2, at IC50 concentrations",14.37 ± 0.45 ng/L
same,TNF-alpha ±SE,"[10]; raw data, HepG2",23.6 ng/L
same,Activity %,[11]; HepG2,16.790%
same,Inhibition %,[11]; HepG2,83.210%
same,Activity %,[11]; K-562,33.902%
same,Inhibition %,[11]; K-562,66.098%
same,Activity %,[11]; MCF7,20.242%
same,Inhibition %,[11]; MCF7,79.758%
same,Caspase-3 ± SE,[12],1.52 ± 0.017 ng/mL
same,Caspase-3 ± SE,[12]; listed as R2,1.52 ng/mL
same,"caspase-3 expression level, fold increase","[12]; HepG-2, vs control cells",3.30 fold
same,% Sub-G1,"[13]; HepG-2, cytotoxic concentration, 24 h, control 68.12",96.3% and 96.13%
same,% S,"[13]; HepG-2, control 2.23",0.52%
same,% G2/M,"[13]; HepG-2, control 6.52",0.16%
same,% G1,"[13]; HepG-2, control 23.14",3.19%

# From paper PMC12377202, “Design, synthesis, and cytotoxic evaluation of quinazoline-based derivatives as VEGER-2 inhibitors: comparative study against EGFR kinase activity, induction of apoptosis, and molecular docking study” (RSC Advances, 2025)
